According to patent US7589095B2, “4-phenyl-pyrimidine-2-carbonitrile derivatives” (N.V. Organon, priority 2004, dated 2009):

Test system: not given
Experiment: not given
Settings: not given

| melting point | Structure (SMILES) |
| --- | --- |
| 112 °C | CCCc1cc(-c2cc(C(F)(F)F)cc(C(F)(F)F)c2)nc(C#N)n1 [Example 6a, 4-(3,5-Bis-trifluoromethyl-phenyl)-6-propyl-pyrimidine-2-carbonitrile] |
| 64 °C | CCCc1cc(-c2cccc(C(C)C)c2)nc(C#N)n1 [Example 5a, 4-(3-Isopropyl-phenyl)-6-propyl-pyrimidine-2-carbonitrile] |

Biological target: T1, recombinant human Cathepsin K (Homo sapiens, UniProt P43235)
T1 sequence (P43235 115-329): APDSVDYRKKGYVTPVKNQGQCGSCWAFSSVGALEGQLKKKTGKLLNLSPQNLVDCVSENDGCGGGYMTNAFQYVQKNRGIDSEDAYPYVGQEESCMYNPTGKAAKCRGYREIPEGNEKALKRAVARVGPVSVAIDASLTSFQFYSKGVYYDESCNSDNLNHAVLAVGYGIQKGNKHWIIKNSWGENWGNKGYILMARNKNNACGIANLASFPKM
Experiment: Cathepsin K activity: inhibition of recombinant human Cathepsin K, fluorogenic substrate Z-Phe-Arg-AMC
Format: biochemical
Settings: pH5.5, fluorescence at 10 minutes, read-out: pIC50 (negative logarithm of the IC50 concentration) for inhibition of human cathepsin K (converted)
Protocol: To a 384 well microtitre plate is added 5 μl of a 100 μM solution of test compound in assay buffer (100 mM sodium acetate pH5.5, 5 mM EDTA, 5 mM dithiothreitol) with 10% dimethylsulfoxide (DMSO), plus 10 μl of 100 μM solution of the substrate Z-Phe-Arg-AMC (Bachem; 7-amido-coumarine derivative of the dipeptide N-benzyloxycarbonyl-Phe-Arg-OH) in assay buffer and 25 μl of assay buffer. 10 μl of a 1 mg/l solution of activated recombinant human cathepsin K, in assay buffer, is then added to the well, yielding a final inhibitor concentration of 10 μM.
Enzyme activity is determined by measuring the fluorescence of the liberated aminomethylcoumarin at […] using […] excitation, at 10 minutes. Percentage enzyme activity is calculated by comparison of this activity to that of a solution containing no inhibitor.

| IC50 | Structure (SMILES) |
| --- | --- |
| < 10 nM | CN(CCCc1cc(-c2cccc(C(F)(F)F)c2)nc(C#N)n1)Cc1ccccc1 [Example 4g, 4-[3-(Benzyl-methyl-amino)-propyl]-6-(3-trifluoromethylphenyl)-pyrimidine-2-carbonitrile] |
| < 10 nM | CN1CCC(N(C)CCCc2cc(-c3cccc(C(F)(F)F)c3)nc(C#N)n2)CC1 [Example 4s, 4-{3-[Methyl-(1-methyl-piperidin-4-yl)-amino]-propyl}-6-(3-trifluoromethylphenyl)-pyrimidine-2-carbonitrile] |
| < 10 nM | CCC(CC)NCCCc1cc(-c2cccc(C(F)(F)F)c2)nc(C#N)n1 [Example 4r, 4-[3-(1-Ethyl-propylamino)-propyl]-6-(3-trifluoromethylphenyl)-pyrimidine-2-carbonitrile] |
| < 100 nM | CC(C)CNCCCc1cc(-c2cccc(C(F)(F)F)c2)nc(C#N)n1 [Example 4h, 4-(3-Isobutylamino-propyl)-6-(3-trifluoromethylphenyl)-pyrimidine-2-carbonitrile] |
| < 10 nM | CN1CCN(CCCc2cc(-c3cccc(C(F)(F)F)c3)nc(C#N)n2)CC1 [Example 4d, 4-[3-(4-Methyl-piperazin-1-yl)-propyl]-6-(3-trifluoromethylphenyl)-pyrimidine-2-carbonitrile] |
| < 10 nM | CC(C)NCCCc1cc(-c2cccc(C(F)(F)F)c2)nc(C#N)n1 [Example 4f, 4-(3-isopropylamino-propyl)-6-(3-trifluoromethylphenyl)-pyrimidine-2-carbonitrile] |
| < 100 nM | CCCc1nc(C#N)nc(-c2cccc(C(F)(F)F)c2)c1C [Example 2, 5-Methyl-4-propyl-6-(3-trifluoromethylphenyl)-pyrimidine-2-carbonitrile] |
| < 10 nM | Cc1ccc(-c2cc(CCCNCCN3CCNC3=O)nc(C#N)n2)cc1C [Example 14n, 4-(3,4-Dimethyl-phenyl)-6-{3-[2-(2-oxo-imidazolidin-1-yl)-ethylamino]-propyl}-pyrimidine-2-carbonitrile] |
| < 10 nM | CC(=O)NCCNCCCc1cc(-c2ccc(C)c(C)c2)nc(C#N)n1 [Example 14j, 4-[3-(2-Acetylamino-ethylamino)-propyl]-6-(3,4-dimethyl-phenyl)-pyrimidine-2-carbonitrile] |
| < 10 nM | N#Cc1nc(CCCN2CCN(c3ccccn3)CC2)cc(-c2cccc(C(F)(F)F)c2)n1 [4a′, 4-[3-(4-Pyridin-2-yl-piperazin-1-yl)-propyl]-6-(3-trifluoromethylphenyl)-pyrimidine-2-carbonitrile] |
| < 10 nM | CN1CCCN(CCCc2cc(-c3cccc(C(F)(F)F)c3)nc(C#N)n2)CC1 [Example 4u, 4-[3-(4-Methyl-[1,4]diazepan-1-yl)-propyl]-6-(3-trifluoromethylphenyl)-pyrimidine-2-carbonitrile] |
| < 10 nM | CNC(=O)CNCCCc1cc(-c2cccc(C(F)(F)F)c2)nc(C#N)n1 [Example 8a, 4-[3-(Methylcarbamoylmethyl-amino)-propyl]-6-(3-trifluoromethylphenyl)-pyrimidine-2-carbonitrile] |
| < 10 nM | N#Cc1nc(CCCN2CCCCC2)cc(-c2cccc(C(F)(F)F)c2)n1 [Example 4a, 4-(3-Piperidin-1-yl-propyl)-6-(3-trifluoromethylphenyl)-pyrimidine-2-carbonitrile] |
| < 10 nM | N#Cc1nc(CCCNCc2ccncc2)cc(-c2cccc(C(F)(F)F)c2)n1 [Example 4i, 4-{3-[(Pyridin-4-ylmethyl)-amino]-propyl}-6-(3-trifluoromethylphenyl)-pyrimidine-2-carbonitrile] |
| < 10 nM | N#Cc1nc(CCCNC2CCCCC2)cc(-c2cccc(C(F)(F)F)c2)n1 [Example 4e, 4-(3-Cyclohexylamino-propyl)-6-(3-trifluoromethylphenyl)-pyrimidine-2-carbonitrile] |
